“Also recorded” adds a separate entry of the source. Where two headings read alike, the source gives them in different places.
Experiments:
[1] = target: T1, KCNQ2 mutant W236L (Homo sapiens, UniProt O43526, W236L); assay: KCNQ2 mutant W236L in CHO cells; type: cell-based; conditions: 10 μM retigabine; 10 μM or 25 μM NH29
T1 construct: expressed in transfected cells; host or cells: CHO cells
Method: FIGS. 11A-F present the potentiating effect of NH29, an exemplary channel opener compound according to embodiments of the present invention, and Retigabine, on KCNQ2 mutants R207W and W236L mutant. Shown are representative traces recorded from CHO cell transfected with the KCNQ2 mutant R207W 0, 1 and 4-4.5 minutes after external application of 25 μM of NH29 and wherein the membrane potential was stepped from −90 mV holding potential to −20 mV for 1.5 seconds pulse duration (FIG. 11A), or 0, 1 and 4 minutes after external application of 25 μM of Retigabine wherein the membrane potential was stepped from −90 mV holding potential to −40 mV for 1.5 seconds pulse duration (FIG. 11B). FIGS. 11C and 11D show representative traces recorded from CHO cells transfected with the KCNQ2 mutant W236L 0, 1 and 6 minutes after external application of 25 μM of NH29 (FIG. 11C) or 0 and 5 minutes after external application of 10 μM of Retigabine (FIG. 11D) and wherein the membrane potential was stepped from −90 mV holding potential to −40 mV for 1.5 seconds pulse duration. […]
Voltage-clamp recordings in CHO cells were performed, using the whole-cell configuration of the patch-clamp technique. […] Series resistances (3-13 MΩ) were compensated (75-90%) and periodically monitored.

[2] = target: T2, KCNQ2 mutant R207W (Homo sapiens, UniProt O43526, R207W); type: cell-based; conditions: RTG (25 μM, −40 mV, FIG. 11B)
T2 construct: expressed in transfected cells; host or cells: CHO cells
Source text: FIGS. 10A-D present the potentiating effect of NH29, an exemplary channel opener compound according to embodiments of the present invention, on wild type KCNQ2 (FIGS. 10A and 10B) and R207W mutant (FIGS. 10C and 10D) channels, as expressed in activation curve measurements, showing that NH29 left-shifts the activation curve (ΔV50) by −15.5 mV and −5.5 mV in the case of the wild-type and the mutant, respectively, and showing that NH29 enhances the current of wild-type and the mutant by about 3.4-fold (at −40 mV) and 1.5-fold (at −20 mV), respectively.
FIGS. 11A-F present the potentiating effect of NH29, an exemplary channel opener compound according to embodiments of the present invention, and Retigabine, on KCNQ2 mutants R207W and W236L mutant. Shown are representative traces recorded from CHO cell transfected with the KCNQ2 mutant R207W 0, 1 and 4-4.5 minutes after external application of 25 μM of NH29 and wherein the membrane potential was stepped from −90 mV holding potential to −20 mV for 1.5 seconds pulse duration (FIG. 11A), or 0, 1 and 4 minutes after external application of 25 μM of Retigabine wherein the membrane potential was stepped from −90 mV holding potential to −40 mV for 1.5 seconds pulse duration (FIG. 11B). FIGS. 11C and 11D show representative traces recorded from CHO cells transfected with the KCNQ2 mutant W236L 0, 1 and 6 minutes after external application of 25 μM of NH29 (FIG. 11C) or 0 and 5 minutes after external application of 10 μM of Retigabine (FIG. 11D) and wherein the membrane potential was stepped from −90 mV holding potential to −40 mV for 1.5 seconds pulse duration. FIG. 11E presents superimposed traces, showing the effects of Retigabine (RTG) and NH29 on the channel activity of KCNQ2 mutant W236L as measured at −40 mV; and FIG. 11F presents a bar diagram comparing the potentiating effect of NH29 and Retigabine on native KCNQ2 and KCNQ2 mutants, wherein the opener effect is expressed as percent of the control current in the absence of the opener.
(§1) Voltage-clamp recordings in CHO cells were performed, using the whole-cell configuration of the patch-clamp technique. Signals were amplified using an Axopatch 200B patch-clamp amplifier (Molecular Devices, Sunnyvale, Calif.), sampled at 2 kHz and filtered at 800 Hz via a 4-pole Bessel low pass filter. Data were acquired using pClamp 9.2 software (Molecular Devices) and an IBM compatible Pentium IV computer in conjunction with a DigiData 1322A interface (Molecular Devices). The patch pipettes were pulled from borosilicate glass (Warner Instrument Corp, USA) with a resistance of 2-5 MΩ. For K^+ current recordings in CHO cells, the intracellular pipette solution contained (in mM): 130 KCl, 1 MgCl2, 5 K2ATP, 5 EGTA, 10 HEPES, adjusted with KOH to pH 7.4 (290 mOsm). The extracellular solution contained (in mM): 140 NaCl, 4 KCl, 1.8 CaCl2, 1.2 MgCl2, 11 glucose, 5.5 HEPES, adjusted with NaOH to pH 7.4 (310 mOsm). Series resistances (3-13 MΩ) were compensated (75-90%) and periodically monitored.

[3] = target: T3, KCNQ2 mutant R198A (Homo sapiens, UniProt O43526, R198A); assay: KCNQ2 S4 mutant R198A; type: cell-based; conditions: RTG
T3 construct: expressed in transfected cells
Source text: (§2) FIGS. 12A-F present the potentiating effect of NH29, an exemplary channel opener compound according to embodiments of the present invention, on selected KCNQ2 mutants. Shown are bar diagrams comparing the potentiating effect of NH29 on native KCNQ2 and KCNQ2 mutants, wherein the mutated amino acids are located at the S1-S2 helix region (FIG. 12A) or S4 helix region (FIG. 12D) and wherein the opener effect is expressed as percent of the control current in the absence of the opener. For comparison, marked as a green line, is the observed current increase of native KCNQ2 by NH29. FIGS. 12B 12C, 12E and 12F present representative traces recorded from CHO cell transfected with the KCNQ2 mutant S122A, S121A, L206C and R201A respectively, before and after external application of 25 μM of NH29 and wherein the membrane potential was stepped from −90 mV holding potential to −40 mV for 1.5 seconds pulse duration.
(§3) Voltage-clamp recordings in CHO cells were performed, using the whole-cell configuration of the patch-clamp technique. Signals were amplified using an Axopatch 200B patch-clamp amplifier (Molecular Devices, Sunnyvale, Calif.), sampled at 2 kHz and filtered at 800 Hz via a 4-pole Bessel low pass filter. […] Series resistances (3-13 MΩ) were compensated (75-90%) and periodically monitored.

[4] = target: T4, KCNQ2 mutant S121A (Homo sapiens, UniProt O43526, S121A); assay: KCNQ2 S1-S2 mutant S121A in CHO cells; type: cell-based; conditions: RTG
T4 construct: expressed in transfected cells; host or cells: CHO cells
Source text: as §2, §3

[5] = tested on: COX; assay: Anti-COX activity in cell culture, CT26 and D122 cell lines (results in words); type: cell-based, mouse; conditions: COX-dependent synthesis of PGE2
Method: Mouse colon adenocarcinoma CT26 and mouse lewis lung carcinoma D122 cells were grown in DMEM (D122) or RPMI (CT26) supplemented with 10% fetal calf serum, 4% glutamine, 1% penicillin-streptomycin-nystatin and 3% non essential amino acids (D122) and were kept in a humidified 37° C. incubator with 5% CO2. For the COX activity assays, cells were grown onto 24 multi-well plates.
Before the assay, cells were washed with serum-free medium; then the tested compounds were added to the medium and incubated for 30 minutes at 37° C. after which 30 μM arachidonic acid were added and incubated for additional 20 minutes. At the end of the incubation period, 10 μM Indomethacin were added to stop the reaction and medium was transferred to another 24 multi-well plate for measuring PGE2 production by radioimmunoassay (DuPont-NEN; Boston Mass.) according to manufacturer protocol. Protein determination was assayed on scraped cells using the Bradford method (1976) [Bradford M. M. 1976. Anal. Biochem. 72:248-254], with BSA as a standard and was used to normalize the amount of PGE2 production.
The anti-COX activity of NH25, NH29 and NH30 was examined in Mouse colon adenocarcinoma CT26 and mouse lewis lung carcinoma D122 cell lines. Cells were incubated with each of the tested compounds and the level of the COX-dependent synthesis of PGE2 was quantified using radioimmunoassay techniques.

[6] = target: T5, Kv7.2/3 channels (Homo sapiens, UniProt O43525+O43526); assay: Kv7.2/3 channels coexpressed in CHO cells, whole-cell patch-clamp; type: cell-based; conditions: for Activity: M-channel modulation, Kv7.2 and Kv7.3 subunits coexpressed in CHO cells; for EC50: read-out: EC50
T5 construct: expressed in transfected cells; host or cells: CHO cells
Method: Chinese hamster ovary (CHO) cells were grown in Dulbecco's modified Eagle's medium (DMEM) supplemented with 2 mM glutamine, 10% fetal calf serum and antibiotics. Briefly, 40,000 cells seeded on poly-D-lysine-coated glass coverslips (13 mm diameter) in a 24-multiwell plate were transfected with pIRES-CD8 (0.5 μg) as a marker for transfection, and with Kv7.2 (0.5 μg) and Kv7.3 (0.5 μg) or TRPV1 […] or TRPV6 […].
For electrophysiology, transfected cells were visualized approximately 40 hours following transfection, using anti-CD8 antibody-coated beads. Transfection was performed using Fugene 6 (Roche, Indianapolis Ind., USA) according to the manufacturer's protocol.
as §1, with “Data were acquired using pClamp 9.2 software (Molecular Devices) and an IBM compatible Pentium IV computer in conjunction with a DigiData 1322A interface (Molecular Devices).” left out, “mOsm).” for “mOsm). Series resistances (3-13 MΩ) were compensated (75-90%) and periodically monitored.”
Data analysis was performed using the Clampfit program (pClamp 9.2, Molecular Devices), Microsoft Excel (Microsoft) and Prism 4.0 (GraphPad). Chord conductance (G) was calculated by using the following equation: G=I/(V−Vrev) where I corresponds to the current amplitude measured at the end of the pulse and Vrev, the calculated reversal potential. G was estimated at various test voltages V and then, normalized to a maximal conductance value, Gmax. Activation curves were fitted by one Boltzmann distribution: G/Gmax=1/{1+exp[(V50−V)/s]} where V50 is the voltage at which the current is half-activated and s is the slope factor. All data were expressed as mean±SEM. Statistically significant differences were assessed by Student's t-test. Analysis of sEPSCs and sIPSCs was done using the Clampfit program (pClamp 9.2, Molecular Devices) and included evaluation of the individual events as well as the average event amplitude and the integral of the event (total charge transfer).
In these studies, the impact of the compounds on M-channel activity was measured by the heterologous coexpression of Kv7.2 and Kv7.3 subunits in CHO cells.

[7] = tested on: DRG neurons; assay: Current-clamp recordings in cultured DRG neurons; type: cell-based, rat
Method: For dorsal root ganglion (DRG) neuronal cultures, ganglia were dissected from 2-5 day-old Sprague-Dawley rats killed by decapitation. DRGs were placed in Hank's balanced saline solution (HBSS) and prepared by enzymatic dissociation. Briefly, after 30 minutes incubation in 5 mg/ml dispase, 2 mg/ml collagenase type 1A and 0.1 mg/ml DNase (Invitrogen/Gibco, Carlsbad, Calif.) in Ca^2+ and Mg^2+-free HBSS, the ganglia were mechanically triturated with a fire-polished glass Pasteur pipette. The ganglia were then centrifuged for 5 minutes at 80×g and resuspended in DMEM supplemented with 2 mM L-glutamine, 16.5 mM NaHCO3, 6 g/l glucose, 5 ml penicillin/streptomycin and 10% fetal calf serum.
For electrophysiological recording, dissociated neurons were plated on 13 mm glass coverslips, previously coated with poly-D-lysine (1 mg/ml) and laminin (10 μg/ml) and used at 1-2 days in culture.
For current-clamp recordings in primary cultured neurons, the patch pipettes were filled with (in mM): 135 KCl, 1 K2ATP, 1 MgATP, 2 EGTA, 1.1 CaCl2, 5 glucose, 10 HEPES, adjusted with KOH at pH 7.4 (315 mOsm). The external solution contained (in mM): 150 NaCl, 2.5 KCl, 2 CaCl2, 2 MgCl2, 15 glucose, 10 HEPES, adjusted with NaOH at pH 7.4 (325 mOsm). Recordings were sampled at 5 kHz and filtered at 2 KHz via a 4-pole Bessel low pass filter. A liquid junction potential of about −15.6 mV was measured between the intracellular and saline solutions and corrected on-line.
For evoking spike discharges, 75-200 pA square depolarizing current pulses were injected into neurons for 400 ms. For rheobase current measurements, 100-1100 pA square depolarizing current pulses were injected into neurons for 2 ms.

[8] = tested on: DRG neurons; assay: Current-clamp recordings in cultured DRG neurons; type: cell-based, rat; conditions: 1 μM NH17; about 10-20 pA for 400 ms; control 1±0; n=5

T1 sequence (O43526 whole entry W236L): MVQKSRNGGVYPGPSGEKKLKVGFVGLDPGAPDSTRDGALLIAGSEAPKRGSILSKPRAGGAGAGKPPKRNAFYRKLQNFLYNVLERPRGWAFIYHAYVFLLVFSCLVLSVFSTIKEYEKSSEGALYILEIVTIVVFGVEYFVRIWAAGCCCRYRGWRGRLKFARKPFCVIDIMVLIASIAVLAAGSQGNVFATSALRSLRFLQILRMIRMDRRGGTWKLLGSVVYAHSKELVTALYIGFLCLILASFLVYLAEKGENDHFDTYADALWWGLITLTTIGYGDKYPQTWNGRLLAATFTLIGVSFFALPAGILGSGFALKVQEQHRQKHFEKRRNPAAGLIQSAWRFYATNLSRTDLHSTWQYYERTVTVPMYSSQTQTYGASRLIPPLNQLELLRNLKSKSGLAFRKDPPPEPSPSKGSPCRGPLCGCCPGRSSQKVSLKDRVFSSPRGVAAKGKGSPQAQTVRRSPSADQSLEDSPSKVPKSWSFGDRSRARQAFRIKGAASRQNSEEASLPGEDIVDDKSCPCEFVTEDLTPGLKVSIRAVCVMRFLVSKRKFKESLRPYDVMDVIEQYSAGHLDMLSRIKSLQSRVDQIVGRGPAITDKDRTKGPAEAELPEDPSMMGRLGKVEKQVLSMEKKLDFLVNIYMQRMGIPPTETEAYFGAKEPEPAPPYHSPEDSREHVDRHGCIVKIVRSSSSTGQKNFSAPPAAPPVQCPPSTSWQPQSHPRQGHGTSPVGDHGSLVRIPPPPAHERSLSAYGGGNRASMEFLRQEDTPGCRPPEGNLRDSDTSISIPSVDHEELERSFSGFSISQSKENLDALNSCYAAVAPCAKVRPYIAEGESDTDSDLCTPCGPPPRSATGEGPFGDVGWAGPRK
T2 sequence (O43526 whole entry R207W): as the sequence (O43526 whole entry W236L) above, with R207W, L236W counted along it
T4 sequence (O43526 whole entry S121A): as the sequence (O43526 whole entry W236L) above, with S121A, L236W counted along it
T3 sequence (O43526 whole entry R198A): as the sequence (O43526 whole entry W236L) above, with R198A, L236W counted along it

CCOC(=O)Nc1ccc(NCc2ccc(F)cc2)cc1N [retigabine, N-(2-amino-4-(4-fluorobenzylamino)-phenyl)carbamic acid ethyl ester, reference compound]
effect of point mutation W236L on the opener effect [1]: completely abolished the opener effect | fold increase of current amplitude [2]: more than 6 fold | fold increase of current amplitude [3]: 4.4 fold | fold increase of current [4]: more than 5 fold

O=C(Cc1cc([N+](=O)[O-])ccc1Nc1c(Cl)cccc1Cl)NCCO [NH30]
anti-COX activity [5]: did not exhibit anti-COX activity | Activity [6]: Opener | ΔV50 (mV) ([6]; left-shift of the activation curve of Kv7.2/3 channels): −12.2 mV | EC50 ([6]; opener potency, concentration-dependent left-shift in half-activation potential ΔV50, sigmoidal fit): 17 µM

Cl.NCCOCCOC(=O)Cc1ccccc1Nc1c(Cl)cccc1Cl [NH17]
inhibition at 25 µM ([6]; CHO, 25 μM, membrane potentials from −60 to +50 mV, read-out: inhibition of the Kv7.2/3 current): > 90% | Activity [6]: potent M-channel blockers; also recorded: Blocker | EC50 ([6]; compounds whose Activity is Blocker): 11 µM | IC50 ([6]; recombinant Kv7.2/3 in CHO cells, read-out: IC50, blockade of the K+ currents): 11 µM | decrease in rheobase current ([7]; 1 μM NH17): about 300 pA | depolarization of DRG membrane potential (ΔV) ([7]; 1 μM NH17, within 2 minutes): +7±1 mV | rheobase current to generate a single spike ([7]; 1 μM NH17, 2 ms injection, control 650±71 pA, n=6): 347±44 pA | number of evoked spikes [8]: 12±2

From patent publication US9403756B2, “N-phenyl anthranilic acid derivatives and uses thereof” (Ramot at Tel-Aviv University Ltd., priority 2007, dated 2016)
